What was measured:
[1] = molecular target: T1, human bradykinin 1 receptor (B1R) (Homo sapiens, UniProt P46663); assay: Functional investigation on the human bradykinin 1 receptor (B1R), Ca2+ FLIPR assay in CHO K1 hB1R cells; type: cell-based; conditions: test substance 10 μM, Ca2+ FLIPR, CHO K1 hB1R cells; for B1R Ant. h [10 μM] % Inhibition: B1R antagonism human; for inhibition at 10 µM: CHO-K1, B1R antagonism human, read-out: B1R Ant. h [10 μM] % Inhibition
T1 construct: expressed in transfected cells; host or cells: CHO K1 cells
T1 sequence (P46663 1-353): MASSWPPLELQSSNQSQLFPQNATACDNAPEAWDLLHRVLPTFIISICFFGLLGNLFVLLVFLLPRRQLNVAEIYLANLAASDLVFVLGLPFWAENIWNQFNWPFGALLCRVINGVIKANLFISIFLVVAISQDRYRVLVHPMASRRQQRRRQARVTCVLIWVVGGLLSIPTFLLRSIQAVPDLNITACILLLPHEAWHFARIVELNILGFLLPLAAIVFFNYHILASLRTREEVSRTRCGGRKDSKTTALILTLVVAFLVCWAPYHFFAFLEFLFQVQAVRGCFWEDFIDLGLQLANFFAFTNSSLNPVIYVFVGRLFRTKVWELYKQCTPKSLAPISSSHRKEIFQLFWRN
Method in brief: (§1)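 Fluo-4 Ca2+ readout, peak fluorescence. Stable CHO K1 transfectants; compound pre-incubated 10-20 min, then EC80 agonist—Lys-Des-Arg9-BK for hB1R, Des-Arg9-BK for rB1R. % inhibition vs maximal inhibition; IC50 from multiple concentrations, duplicate/triplicate, ≥2 independent runs.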

human μ opiate receptor = molecular target: T2, human μ opiate receptor (Homo sapiens, UniProt P35372); assay: Affinity for the human μ opiate receptor ([3H]-naloxone displacement, CHO-K1 receptor membrane preparation, SPA); type: binding; conditions: Table 3, to be read in the same way as Table 1, test concentration 1 μM; for inhibition at 1 µM: 1.5 h, read-out: μ
T2 construct: purchased PerkinElmer Life Sciences, Zaventem, Belgium RB-HOM; host or cells: CHO-K1 cells (membrane preparation)
T2 sequence (P35372 whole entry): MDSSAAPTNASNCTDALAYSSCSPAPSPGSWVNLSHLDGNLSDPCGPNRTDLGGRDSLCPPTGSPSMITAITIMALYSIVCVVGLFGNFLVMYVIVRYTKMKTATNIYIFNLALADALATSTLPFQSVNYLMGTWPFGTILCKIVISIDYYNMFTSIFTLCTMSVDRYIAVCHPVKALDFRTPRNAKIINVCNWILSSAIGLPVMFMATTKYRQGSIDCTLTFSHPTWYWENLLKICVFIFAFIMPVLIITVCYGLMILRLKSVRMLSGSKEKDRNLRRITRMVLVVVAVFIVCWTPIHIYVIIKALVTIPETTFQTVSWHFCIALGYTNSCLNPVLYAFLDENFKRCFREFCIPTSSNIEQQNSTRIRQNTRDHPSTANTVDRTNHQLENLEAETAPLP
Method in brief: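 Displacement of 1 nmol/l [3H]-naloxone measured by SPA counting after 90 min at room temperature, using human μ receptor CHO-K1 membrane preparation in Tris-HCl buffer with 0.06% BSA. Test substances at 1 μmol/l give % inhibition; dilution series yield IC50, then Ki (Cheng-Prusoff); non-specific binding with 100 μmol/l naloxone.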

[2] = molecular target: T3, bradykinin 1 receptor (B1R) of the rat (Rattus norvegicus, UniProt P97583); assay: Functional investigation on the rat bradykinin 1 receptor (B1R), Ca2+ FLIPR assay in CHO K1 rB1R cells; type: cell-based; conditions: test substance 10 μM, Ca2+ FLIPR, CHO K1 rB1R cells; for B1R Ant. r [10 μM] % Inhibition: B1R antagonism rat; for inhibition at 10 µM: CHO-K1, B1R antagonism rat, read-out: B1R Ant. r [10 μM] % Inhibition
T3 construct: expressed in transfected cells; host or cells: CHO K1 cells
T3 sequence (P97583 1-337): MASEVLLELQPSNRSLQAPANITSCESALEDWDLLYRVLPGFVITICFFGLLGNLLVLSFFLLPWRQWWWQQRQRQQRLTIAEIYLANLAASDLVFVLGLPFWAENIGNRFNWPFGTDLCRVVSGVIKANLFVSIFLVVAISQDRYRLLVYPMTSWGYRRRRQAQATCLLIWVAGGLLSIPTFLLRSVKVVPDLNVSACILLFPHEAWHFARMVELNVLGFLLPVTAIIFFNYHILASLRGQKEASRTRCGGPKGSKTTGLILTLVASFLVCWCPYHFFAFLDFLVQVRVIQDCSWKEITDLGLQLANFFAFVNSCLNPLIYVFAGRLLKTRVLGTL
Method in brief: as §1

Structure (SMILES) | B1R Ant. h [10 μM] % Inhibition [1] [%] | μ (human μ opiate receptor) [% inhibition] | B1R Ant. r [10 μM] % Inhibition [2] [%] | inhibition at 10 µM [1] [%] | inhibition at 1 µM (human μ opiate receptor) [%] | inhibition at 10 µM [2] [%]
O=C(COC1CCCN(S(=O)(=O)c2c(Cl)cc(Cl)cc2Cl)C1)NC1CCC(C(CCc2ccccc2)N2CCOCC2)CC1 (stereo not drawn) [Example 672, N-(4-(1-morpholin-3-phenylpropyl)cyclohexyl)-2-(1-(2,4,6-trichlorophenylsulfonyl)piperidin-3-yloxy)acetamide] | 18 | 16 | 11 |  |  | 
O=C(COC1CCCN(S(=O)(=O)c2c(Cl)cc(Cl)cc2Cl)C1)NC1CCC(C(CCc2ccccc2)N2CCCCC2)CC1 (stereo not drawn) [Example 673, N-(4-(3-phenyl-1-(piperidin-1-yl)propyl)cyclohexyl)-2-(1-(2,4,6-trichlorophenylsulfonyl)piperidin-3-yloxy)acetamide] |  |  |  | 57 | 71 | 20
COc1cc(C)c(S(=O)(=O)N2CCCC(OCC(=O)NC3CCC(C(CCc4ccccc4)N4CCOCC4)CC3)C2)c(C)c1 (stereo not drawn) [Example 674, 2-(1-(4-methoxy-2,6-dimethylphenylsulfonyl)piperidin-3-yloxy)-N-(4-(1-morpholino-3-phenylpropyl)cyclohexyl)acetamide] |  |  |  | 61 | 7 | 45
COc1cc(C)c(S(=O)(=O)N2CCCC(OCC(=O)NC3CCC(C(CCc4ccccc4)N4CCCCC4)CC3)C2)c(C)c1 (stereo not drawn) [Example 675, 2-(1-(4-methoxy-2,6-dimethylphenylsulfonyl)piperidin-3-yloxy)-N-(4-(3-phenyl-1-(piperidin-1-yl)propyl)cyclohexyl)acetamide] |  |  |  | 97 | 37 | 89
COc1cc(C)c(S(=O)(=O)N2CCCC2COCC(=O)NC2CCC(C(CCc3ccccc3)N3CCOCC3)CC2)c(C)c1 (stereo not drawn) [Example 676, 2-((1-(4-methoxy-2,6-dimethylphenylsulfonyl)pyrrolidin-2-yl)methoxy)-N-(4-(1-morpholino-3-phenylpropyl)cyclohexyl)acetamide] |  |  |  | 93 | 10 | 106
COc1cc(C)c(S(=O)(=O)N2CCCC2COCC(=O)NC2CCC(C(CCc3ccccc3)N3CCCCC3)CC2)c(C)c1 (stereo not drawn) [Example 677, 2-((1-(4-methoxy-2,6-dimethylphenylsulfonyl)pyrrolidin-2-yl)methoxy)-N-(4-(3-phenyl-1-(piperidin-1-yl)propyl)cyclohexyl)acetamide] |  |  |  | 104 | 60 | 107
COc1cc(C)c(S(=O)(=O)N2CCCC(COCC(=O)NC3CCC(C(CCc4ccccc4)N4CCOCC4)CC3)C2)c(C)c1 (stereo not drawn) [Example 678, 2-((1-(4-methoxy-2,6-dimethylphenylsulfonyl)piperidin-3-yl)methoxy)-N-(4-(1-morpholino-3-phenylpropyl)cyclohexyl)acetamide] |  |  |  | 45 | 6 | 73
O=C(COCC1CCCN(S(=O)(=O)c2c(Cl)cc(Cl)cc2Cl)C1)NC1CCC(C(CCc2ccccc2)N2CCCCC2)CC1 (stereo not drawn) [Example 679, N-(4-(3-phenyl-1-(piperidin-1-yl)propyl)cyclohexyl)-2-((1-(2,4,6-trichlorophenylsulfonyl)piperidin-3-yl)methoxy)acetamide] |  |  |  | 39 | 51 | 34
CN(CCOCC(=O)NC1CCC(C(c2ccccc2)N2CCOCC2)CC1)S(=O)(=O)c1ccc(Cl)cc1Cl (stereo not drawn) [Example 680, 2-(2-(2,4-dichloro-N-methylphenylsulfonamido)ethoxy)-N-(4-(morpholino(phenyl)methyl)cyclohexyl)acetamide] |  |  |  | 21 | 4 | 23
COc1cc(C)c(S(=O)(=O)N(C)CCOCC(=O)NC2CCC(C(c3ccccc3)N3CCOCC3)CC2)c(C)c1 (stereo not drawn) [Example 681, 2-(2-(4-methoxy-N,2,6-trimethylphenylsulfonamido)ethoxy)-N-(4-(morpholino(phenyl)methyl)cyclohexyl)acetamide] |  |  |  | 98 | 10 | 98
COc1cc(C)c(S(=O)(=O)N(C)CCOCC(=O)NC2CCC(C(c3ccccc3)N3CCN(C)CC3)CC2)c(C)c1 (stereo not drawn) [Example 682, 2-(2-(4-methoxy-N,2,6-trimethylphenylsulfonamido)ethoxy)-N-(4-((4-methylpiperazin-1-yl)(phenyl)methyl)cyclohexyl)acetamide] |  |  |  | 104 | 36 | 103
CN(CCOCC(=O)NC1CCC(C(c2ccccc2)N2CCOCC2)CC1)S(=O)(=O)c1c(Cl)cccc1Cl (stereo not drawn) [Example 683, 2-(2-(2,6-dichloro-N-methylphenylsulfonamido)ethoxy)-N-(4-(morpholino(phenyl)methyl)cyclohexyl)acetamide] |  |  |  | 32 | 5 | 48
CN1CCN(C(c2ccccc2)C2CCC(NC(=O)COCCN(C)S(=O)(=O)c3c(Cl)cccc3Cl)CC2)CC1 (stereo not drawn) [Example 684, 2-(2-(2,6-dichloro-N-methylphenylsulfonamido)ethoxy)-N-(4-((4-methylpiperazin-1-yl)(phenyl)methyl)cyclohexyl)acetamide] |  |  |  | 95 | 29 | 61
O=C(COC1CCN(S(=O)(=O)c2c(Cl)cc(Cl)cc2Cl)C1)NC1CCC(C(c2ccccc2)N2CCOCC2)CC1 (stereo not drawn) [Example 685, N-(4-(morpholin(phenyl)methyl)cyclohexyl)-2-(1-(2,4,6-trichlorophenylsulfonyl)pyrrolidin-3-yloxy)acetamide] | 13 | 3 | 18 |  |  | 
CN1CCN(C(c2ccccc2)C2CCC(NC(=O)COC3CCN(S(=O)(=O)c4c(Cl)cc(Cl)cc4Cl)C3)CC2)CC1 (stereo not drawn) [Example 686, N-(4-((4-methylpiperazin-1-yl)(phenyl)methyl)cyclohexyl)-2-(1-(2,4,6-trichlorophenylsulfonyl)pyrrolidin-3-yloxy)acetamide] |  |  |  | 80 | 30 | 29
COc1cc(C)c(S(=O)(=O)N2CCC(OCC(=O)NC3CCC(C(c4ccccc4)N4CCOCC4)CC3)C2)c(C)c1 (stereo not drawn) [Example 687, 2-(1-(4-methoxy-2,6-dimethylphenylsulfonyl)pyrrolidin-3-yloxy)-N-(4-(morpholino(phenyl)methyl)cyclohexyl)acetamide] |  |  |  | 48 | 6 | 88
COc1cc(C)c(S(=O)(=O)N2CCC(OCC(=O)NC3CCC(C(c4ccccc4)N4CCN(C)CC4)CC3)C2)c(C)c1 (stereo not drawn) [Example 688, 2-(1-(4-methoxy-2,6-dimethylphenylsulfonyl)pyrrolidin-3-yloxy)-N-(4-((4-methylpiperazin-1-yl)(phenyl)methyl)cyclohexyl)acetamide] |  |  |  | 103 | 20 | 94
CN(CCOCC(=O)NC1CCC(C(c2ccccc2)N2CCOCC2)CC1)S(=O)(=O)c1c(Cl)cc(C(F)(F)F)cc1Cl (stereo not drawn) [Example 689, 2-(2-(2,6-dichloro-N-methyl-4-(trifluoromethyl)phenylsulfonamido)ethoxy)-N-(4-(morpholino(phenyl)methyl)cyclohexyl)acetamide] |  |  |  | 22 | 6 | 39
CN1CCN(C(c2ccccc2)C2CCC(NC(=O)COCCN(C)S(=O)(=O)c3c(Cl)cc(C(F)(F)F)cc3Cl)CC2)CC1 (stereo not drawn) [Example 690, 2-(2-(2,6-dichloro-N-methyl-4-(trifluoromethyl)phenylsulfonamido)ethoxy)-N-(4-((4-methylpiperazin-1-yl)(phenyl)methyl)cyclohexyl)acetamide] |  |  |  | 54 | 26 | 30
